According to patent US11911386B2, “Methods of treating B-cell proliferative disorder” (BeiGene Switzerland GmbH, priority 2022, dated 2024):
Read-outs that look alike come from different tables or passages of the source.

Legend:
[1] = cited from earlier work
[2] = cited from earlier work; remark: listed apart in the source
[3] = coadministration with itraconazole

In the case of `C=CC(=O)N1CCC([C@@H]2CCNc3c(C(N)=O)c(-c4ccc(Oc5ccccc5)cc4)nn32)CC1` [zanubrutinib, (S)-7-(1-acryloylpiperidin-4-yl)-2-(4-phenoxyphenyl)-4,5,6,7-tetrahydropyrazolo[1,5-a]pyrimidine-3-carboxamide], the “Median Tmax” value ([1]; oral administration) is listed as 2 h, the “Mean terminal elimination half-life (t1/2)” value ([1]; patients with B-cell malignancies) is listed as 2 to 4 h and the “Mean t1/2” value ([1]; previous clinical DDI study in healthy volunteers) is listed as 6.8 h. The “Increase in zanubrutinib AUC0-∞” value [2, 3] was 3.8 fold, the “Increase in zanubrutinib Cmax” value [2, 3] was 2.6 fold and the “Decrease in zanubrutinib AUC0-∞” value ([2]; coadministration with rifampin) was 13.5 fold. For the same compound, the “Decrease in zanubrutinib Cmax” value ([2]; coadministration with rifampin) was 12.6 fold, the Exposure change ([2]; coadministration with rifampin) was 13 fold and the “Grade ≥3 AE” value (160 mg bid group) was 28.6%. The Neutropenia (160 mg bid group) was 19.0%, the “Patients with ≥1 AE” value (160 mg bid group) was 95.2% and the SAE (160 mg bid group) was 9.5%. For the same compound, the “Treatment discontinuation due to AEs” value (160 mg bid group) was 4.8%, the “Grade ≥3 AE” value (320 mg qd group) was 32.0% and the Neutropenia (320 mg qd group) was 8.0%. For the same compound, the “Patients with ≥1 AE” value (320 mg qd group) was 96%, the SAE (320 mg qd group) was 16.0% and the “Treatment discontinuation due to AEs” value (320 mg qd group) was 12.0%. For the same compound, the Arthralgia (67 patients) was 13.4%, the Contusion (67 patients) was 22.4% and the “Death (COVID-19 pneumonia)” value (67 patients) was 1.5%. The Diarrhoea (67 patients) was 13.4%, the Epistaxis (67 patients) was 7.5% and the Fatigue (67 patients) was 20.9%. The “Grade ≥3 AEs” value (67 patients) was 29.9%, the Hypertension (67 patients) was 11.9% and the Myalgia (67 patients) was 14.9%. For the same compound, the “Neutropenia or neutrophil count decreased, grade ≥3” value (67 patients) was 11.9%, the “Patients with ≥1 AE” value (67 patients) was 95.5% and the Petechiae (67 patients) was 7.5%. For the same compound, the “Serious AEs” value (67 patients) was 11.9%, the “Syncope, grade ≥3” value (67 patients) was 3.0% and the Atrial fibrillation (67 patients, all grade 2) was 4.5%. The “Patients who discontinued zanubrutinib” value (Cohort 1) was 15.8%, the “Patients who discontinued zanubrutinib due to AEs” value (Cohort 1) was 7.0% and the “Patients who discontinued zanubrutinib” value (Cohort 2) was 20.0%. For the same compound, the Arthralgia (Grade 1) was 4 (6.0) n (%), the Back pain (Grade 1) was 2 (3.0) n (%) and the Bronchitis (Grade 1) was 0 (0.0) n (%). For the same compound, the Cellulitis (Grade 1) was 0 (0.0) n (%), the Constipation (Grade 1) was 3 (4.5) n (%) and the Contusion (Grade 1) was 12 (17.9) n (%). For the same compound, the Cough (Grade 1) was 4 (6.0) n (%), the Diarrhoea (Grade 1) was 6 (9.0) n (%) and the Dizziness (Grade 1) was 3 (4.5) n (%). The Epistaxis (Grade 1) was 4 (6.0) n (%), the Fatigue (Grade 1) was 8 (11.9) n (%) and the Headache (Grade 1) was 4 (6.0) n (%). The Hypertension (Grade 1) was 0 (0.0) n (%), the Insomnia (Grade 1) was 3 (4.5) n (%) and the Muscle spasms (Grade 1) was 4 (6.0) n (%). For the same compound, the Myalgia (Grade 1) was 8 (11.9) n (%), the Nausea (Grade 1) was 6 (9.0) n (%) and the Neutropenia (Grade 1) was 0 (0.0) n (%). The Neutrophil count decrease (Grade 1) was 0 (0.0) n (%), the Pain in extremity (Grade 1) was 3 (4.5) n (%) and the Petechiae (Grade 1) was 5 (7.5) n (%). For the same compound, the Pruritus (Grade 1) was 3 (4.5) n (%), the Rash (Grade 1) was 5 (7.5) n (%) and the Seborrheic keratosis (Grade 1) was 3 (4.5) n (%). For the same compound, the Skin laceration (Grade 1) was 2 (3.0) n (%), the “Upper respiratory tract infection” value (Grade 1) was 3 (4.5) n (%) and the Urinary tract infection (Grade 1) was 1 (1.5) n (%). The Arthralgia (Grade 2) was 5 (7.5) n (%), the Back pain (Grade 2) was 2 (3.0) n (%) and the Bronchitis (Grade 2) was 3 (4.5) n (%). For the same compound, the Cellulitis (Grade 2) was 3 (4.5) n (%), the Constipation (Grade 2) was 1 (1.5) n (%) and the Contusion (Grade 2) was 3 (4.5) n (%). For the same compound, the Cough (Grade 2) was 1 (1.5) n (%), the Diarrhoea (Grade 2) was 2 (3.0) n (%) and the Dizziness (Grade 2) was 4 (6.0) n (%). The Epistaxis (Grade 2) was 1 (1.5) n (%), the Fatigue (Grade 2) was 6 (9.0) n (%) and the Headache (Grade 2) was 0 (0.0) n (%). The Hypertension (Grade 2) was 7 (10.4) n (%), the Insomnia (Grade 2) was 2 (3.0) n (%) and the Muscle spasms (Grade 2) was 1 (1.5) n (%). For the same compound, the Myalgia (Grade 2) was 2 (3.0) n (%), the Nausea (Grade 2) was 1 (1.5) n (%) and the Neutropenia (Grade 2) was 0 (0.0) n (%). For the same compound, the Neutrophil count decrease (Grade 2) was 2 (3.0) n (%), the Pain in extremity (Grade 2) was 3 (4.5) n (%) and the Petechiae (Grade 2) was 0 (0.0) n (%). For the same compound, the Pruritus (Grade 2) was 1 (1.5) n (%), the Rash (Grade 2) was 0 (0.0) n (%) and the Seborrheic keratosis (Grade 2) was 1 (1.5) n (%). The Skin laceration (Grade 2) was 2 (3.0) n (%), the “Upper respiratory tract infection” value (Grade 2) was 1 (1.5) n (%) and the Urinary tract infection (Grade 2) was 4 (6.0) n (%). The Arthralgia (Grade 3) was 0 (0.0) n (%), the Back pain (Grade 3) was 0 (0.0) n (%) and the Bronchitis (Grade 3) was 1 (1.5) n (%). For the same compound, the Cellulitis (Grade 3) was 1 (1.5) n (%), the Constipation (Grade 3) was 0 (0.0) n (%) and the Contusion (Grade 3) was 0 (0.0) n (%). The Cough (Grade 3) was 0 (0.0) n (%), the Diarrhoea (Grade 3) was 1 (1.5) n (%) and the Dizziness (Grade 3) was 0 (0.0) n (%). For the same compound, the Epistaxis (Grade 3) was 0 (0.0) n (%), the Fatigue (Grade 3) was 0 (0.0) n (%) and the Headache (Grade 3) was 0 (0.0) n (%). The Hypertension (Grade 3) was 1 (1.5) n (%), the Insomnia (Grade 3) was 0 (0.0) n (%) and the Muscle spasms (Grade 3) was 0 (0.0) n (%). The Myalgia (Grade 3) was 0 (0.0) n (%), the Nausea (Grade 3) was 0 (0.0) n (%) and the Neutropenia (Grade 3) was 5 (7.5) n (%). For the same compound, the Neutrophil count decrease (Grade 3) was 2 (3.0) n (%), the Pain in extremity (Grade 3) was 0 (0.0) n (%) and the Petechiae (Grade 3) was 0 (0.0) n (%). The Pruritus (Grade 3) was 0 (0.0) n (%), the Rash (Grade 3) was 0 (0.0) n (%) and the Seborrheic keratosis (Grade 3) was 0 (0.0) n (%). The Skin laceration (Grade 3) was 0 (0.0) n (%), the “Upper respiratory tract infection” value (Grade 3) was 0 (0.0) n (%) and the Urinary tract infection (Grade 3) was 0 (0.0) n (%). The Arthralgia (Grade 4) was 0 (0.0) n (%), the Back pain (Grade 4) was 0 (0.0) n (%) and the Bronchitis (Grade 4) was 0 (0.0) n (%). The Cellulitis (Grade 4) was 0 (0.0) n (%), the Constipation (Grade 4) was 0 (0.0) n (%) and the Contusion (Grade 4) was 0 (0.0) n (%). The Cough (Grade 4) was 0 (0.0) n (%), the Diarrhoea (Grade 4) was 0 (0.0) n (%) and the Dizziness (Grade 4) was 0 (0.0) n (%). For the same compound, the Epistaxis (Grade 4) was 0 (0.0) n (%), the Fatigue (Grade 4) was 0 (0.0) n (%) and the Headache (Grade 4) was 0 (0.0) n (%). For the same compound, the Hypertension (Grade 4) was 0 (0.0) n (%), the Insomnia (Grade 4) was 0 (0.0) n (%) and the Muscle spasms (Grade 4) was 0 (0.0) n (%). For the same compound, the Myalgia (Grade 4) was 0 (0.0) n (%), the Nausea (Grade 4) was 0 (0.0) n (%) and the Neutropenia (Grade 4) was 0 (0.0) n (%). For the same compound, the Neutrophil count decrease (Grade 4) was 1 (1.5) n (%), the Pain in extremity (Grade 4) was 0 (0.0) n (%) and the Petechiae (Grade 4) was 0 (0.0) n (%). The Pruritus (Grade 4) was 0 (0.0) n (%), the Rash (Grade 4) was 0 (0.0) n (%) and the Seborrheic keratosis (Grade 4) was 0 (0.0) n (%). For the same compound, the Skin laceration (Grade 4) was 0 (0.0) n (%), the “Upper respiratory tract infection” value (Grade 4) was 0 (0.0) n (%) and the Urinary tract infection (Grade 4) was 0 (0.0) n (%). For the same compound, the Serious atrial fibrillation (Safety Analysis Set, 72 patients) was 2.8%, the Arthralgia (Total) was 9 (13.4) n (%) and the Back pain (Total) was 4 (6.0) n (%). The Bronchitis (Total) was 4 (6.0) n (%), the Cellulitis (Total) was 4 (6.0) n (%) and the Constipation (Total) was 4 (6.0) n (%). The Contusion (Total) was 15 (22.4) n (%), the Cough (Total) was 5 (7.5) n (%) and the Diarrhoea (Total) was 9 (13.4) n (%). The Dizziness (Total) was 7 (10.4) n (%), the Epistaxis (Total) was 5 (7.5) n (%) and the Fatigue (Total) was 14 (20.9) n (%). The Headache (Total) was 4 (6.0) n (%), the Hypertension (Total) was 8 (11.9) n (%) and the Insomnia (Total) was 5 (7.5) n (%). For the same compound, the Muscle spasms (Total) was 5 (7.5) n (%), the Myalgia (Total) was 10 (14.9) n (%) and the Nausea (Total) was 7 (10.4) n (%). The Neutropenia (Total) was 5 (7.5) n (%), the Neutrophil count decrease (Total) was 5 (7.5) n (%) and the Pain in extremity (Total) was 6 (9.0) n (%). The Petechiae (Total) was 5 (7.5) n (%), the Pruritus (Total) was 4 (6.0) n (%) and the Rash (Total) was 5 (7.5) n (%). The Seborrheic keratosis (Total) was 4 (6.0) n (%), the Skin laceration (Total) was 4 (6.0) n (%) and the “Upper respiratory tract infection” value (Total) was 4 (6.0) n (%). The Urinary tract infection (Total) was 5 (7.5) n (%), the Bleeding events (in vivo) was 25 patients and the “Median time to onset of first hypertensive event” value (in vivo) was 105 days. For the same compound, the “Patients requiring dose reductions” value (in vivo) was 9.0% and the “Rate of zanubrutinib discontinuation due to AEs” value (in vivo) was < 10%.
